Literature values in patent US5739112A, “Inhibitors of factor Xa” (Corvas International, Inc., priority 1995, dated 1998).

How the values were obtained:
Settings in all cases: Turner et al., p. 4932; cited from earlier work
[1] = target: human thrombin (Homo sapiens, UniProt P00734)
[2] = test system: Human factor XIa
[3] = target: T1, Human factor Xa (Homo sapiens, UniProt P00742)
T1 construct: Human factor X contains a light-chain subunit containing 139 amino acid residues; purchased Enzyme Research Laboratories
T1 sequence (P00742 235-488 limits assumed): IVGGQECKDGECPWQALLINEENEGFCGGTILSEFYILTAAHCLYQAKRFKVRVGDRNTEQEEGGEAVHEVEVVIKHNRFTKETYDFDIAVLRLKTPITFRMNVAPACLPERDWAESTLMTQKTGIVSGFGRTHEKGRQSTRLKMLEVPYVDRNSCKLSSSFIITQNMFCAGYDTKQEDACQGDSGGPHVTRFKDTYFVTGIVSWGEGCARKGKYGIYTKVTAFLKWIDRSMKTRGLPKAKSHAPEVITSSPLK
T1 sequence (P00742 41-179 partner limits assumed): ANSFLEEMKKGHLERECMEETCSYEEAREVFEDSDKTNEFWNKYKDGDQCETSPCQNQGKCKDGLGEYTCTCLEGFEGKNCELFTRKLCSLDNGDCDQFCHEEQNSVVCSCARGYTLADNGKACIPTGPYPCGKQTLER

## CC(=Cc1ccccc1)C(=O)Oc1ccc(C(=N)N)cc1 [p-Amidinophenyl α-methylcinnamate]
[1]
  second-order rate constant of inactivation, human thrombin: 2670 M⁻¹ s⁻¹
[2]
  second-order rate constant of inactivation, human factor XIa: 2670 M⁻¹ s⁻¹
[3]
  second-order rate constant of inactivation, human factor Xa: 1650 M⁻¹ s⁻¹
